What was measured:
Assay type in all cases: in vivo
Toxocara canis [1] = assay: Efficacy of fenbendazole per os to dogs against Toxocara canis infections (fecal egg counts); details: oral liquid formulation, 0.5, 1.0 or 1.5 mg/kg daily Days 0-52 (at least treatment groups 2-4), ~250 T. canis eggs on Day 0, expected by the end of the study period
Excerpt: Efficacy of Fenbendazole Administered per os, i.e. by Mouth, to Dogs for the Treatment and Control of Toxocara canis Infections. Methods: A pool of dogs are to be preliminarily examined to ensure suitability for the example. Dogs must be within normal weight ranges for breed, in good health with no known history of serious disease and neither pregnant nor lactating. Between Day-6 and Day-3, a fecal examination may be performed to confirm the absence of pre-existing infection by any nematode species. Dogs exposed to an anthelmintic within 30 days prior to Day-7 are to be excluded. 20 eligible dogs are to be weighed on Day-2 or Day-1 and randomly assigned to 1 of 5 groups by weight (1 control group and 4 treatment groups). Dogs are to be housed indoors to help prevent naturally occurring parasitic worm infections. Dogs may be pair housed, if compatible, or individually housed until allocation to treatment groups on Day 0. Thereafter, the dogs are to be housed individually. Dogs are to be fed a standard commercially available dog food at the recommended rates and should be allowed access to potable water ad libitum. Each dog in a treatment group (test groups 2-5) is to receive by mouth a liquid formulation of fenbendazole. The dosage is to be administered to the dogs on each of days 0-52 according to test groups, see TABLE 5. [table] […]

Ancylostoma caninum = assay: Efficacy of monepantel per os to dogs against Ancylostoma caninum (fecal egg counts); details: oral liquid formulation, 0.25 or 0.5 mg/kg daily Days 0-22, ~300 A. caninum larvae on Day 0, expected within approximately 2 weeks
Excerpt: Efficacy of Monepantel Administered per os, i.e. by Mouth, to Dogs for the Treatment and Control of Ancylostoma caninum. Methods: A pool of 12 dogs are to be preliminarily examined to ensure suitability for the example. Dogs must be within normal weight ranges for breed, in good health with no known history of serious disease and neither pregnant nor lactating. Between Day-7 and Day-3, a fecal examination may be performed to confirm the absence of pre-existing infection by any nematode species. Dogs exposed to an anthelmintic within 30 days prior to Day-7 are to be excluded. Dogs are to be weighed on Day-2 and randomly assigned to 1 of 3 groups by weight (1 control group and 2 treatment groups). Dogs may be pair housed, if compatible, or individually housed until allocation to treatment groups on Day 0. Thereafter, the dogs are to be housed individually. Dogs are to be fed a standard commercially available dog food at the recommended rates and should be allowed access to potable water ad libitum. Each dog in a treatment group (test groups 2-3) is to receive by mouth a liquid formulation of monepantel. The dosage is to be administered to the dogs on each of days 0-22 according to test groups, see TABLE 3. [table] Dogs in the control group are not to receive any anthelmintics or any other worm control treatment. Dogs are to be fasted overnight. […]

Toxocara canis [2] = assay: Efficacy of monepantel per os to dogs against Toxocara canis (fecal egg counts); details: oral liquid formulation, 0.125, 0.25 or 0.5 mg/kg daily Days 0-52, ~250 T. canis eggs on Day 0, all treatment groups, expected by the end of the study period
Excerpt: Efficacy of Monepantel Administered per os, i.e. by Mouth, to Dogs for the Treatment and Control of Toxocara canis.
Methods: A pool of dogs are to be preliminarily examined to ensure suitability for the example. Dogs must be within normal weight ranges for breed, in good health with no known history of serious disease and neither pregnant nor lactating. On Day-6, a fecal examination may be performed to confirm the absence of pre-existing infection by any nematode species. Dogs exposed to an anthelmintic within 30 days prior to Day-7 are to be excluded.
16 eligible dogs are to be weighed on Day-1 and randomly assigned to 1 of 4 groups by weight (1 control group and 3 treatment groups).
Dogs are to be housed indoors to help prevent naturally occurring parasitic worm infections. Dogs may be pair housed, if compatible, or individually housed until allocation to treatment groups on Day 0. Thereafter, the dogs are to be housed individually. Dogs are to be fed a standard commercially available dog food at the recommended rates and should be allowed access to potable water ad libitum.
Each dog in a treatment group (test groups 2-4) is to receive by mouth a liquid formulation of monepantel. The dosage is to be administered to the dogs on each of days 0-52 according to test groups, see TABLE 4.
Dogs in the control group are not to receive any anthelmintics or any other worm control treatment. […]

| Structure (SMILES) | efficacy (fecal egg count reduction) (Toxocara canis [1]) [%] | Percent reduction in fecal egg counts (Ancylostoma caninum) [%] | efficacy (fecal egg count reduction) (Toxocara canis [2]) [%] |
| --- | --- | --- | --- |
| COC(=O)Nc1nc2ccc(Sc3ccccc3)cc2[nH]1 [Fenbendazole, methyl N-(6-phenylsulfanyl-1H-benzimidazol-2-yl) carbamate] | 100 | – | – |
| C[C@](C#N)(COc1cc(C#N)ccc1C(F)(F)F)NC(=O)c1ccc(SC(F)(F)F)cc1 [Monepantel, N-[(2S)-2-cyano-1-[5-cyano-2-(trifluoromethyl)phenoxy]propan-2-yl]-4-(trifluoromethylsulfanyl)benzamide] | – | 100 | 100 |

Source: patent publication US20250204555A1, “FEED AND METHODS FOR CONTROLLING INTESTINAL TRACT PARASITIC WORM INFECTIONS IN MAMMALS” (In the Bowl Animal Health, priority 2022, published 2025)
